GI50 and TGI data for 8 compounds are collected here from PubChem BioAssay (NCI).

Experiment in all cases: inhibition of tumour cell growth, NCI panel, 48 h
Experiment [1] concerns ACHN renal.
In experiment [2] the test system is COLO 205 colon.
The subject of experiment [3] is HL-60(TB) leukemia.
Experiment [4] concerns K-562 leukemia.
The test system of experiment [5] is OVCAR-8 ovarian.
The subject of experiment [6] is RPMI-8226 leukemia.
The test system of experiment [7] is SF-268 CNS.
In experiment [8] the test system is T-47D breast.

“And” between values parts separate entries of the source, which are not always exact repeats. Equal values may be shown once.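 Growth conditions: 96-well plates. Treatment: test compound, 48 hours, 5 concentrations. Analysis: linear interpolation between bracketing concentrations; unreached endpoints set to highest concentration. Abbreviation: GI50, concentration required for 50% inhibition of growth. TGI is the concentration that stops growth completely.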

Turning to `CCc1nc(-n2c(CC)nc3ccccc3c2=O)nc(N)c1-c1ccc(Cl)cc1`, the GI50 is over 27.1 µM in experiment [1]; 19.3 µM in experiment [2]; over 100 µM in experiment [3]; 17.6 µM in experiment [4]; 6.65 µM in experiment [5]; 1.24 µM in experiment [6]. The figures for the GI50 in experiment [7] and in experiment [8] were over 40.4 µM and over 60.4 µM, respectively. Further, the TGI is over 100 µM in experiment [1]; over 79.3 µM in experiment [2]; over 100 µM in experiment [3]; over 100 µM in experiment [4]; over 100 µM in experiment [5]; over 32 µM in experiment [6]. Also, the TGI in experiment [7] and in experiment [8] was over 100 µM throughout.

As to `COc1ccccc1-c1ccc2nc(NC(=O)Nc3cc(C(F)(F)F)cc(C(F)(F)F)c3)sc2c1`, the GI50 in experiment [1] is 2.14 µM; in experiment [2] it was 1.65 µM; in experiment [3], 2.01 µM; in experiment [4], 1.54 µM; in experiment [5], 3.04 µM; in experiment [6] it was 1.63 µM. Moreover, the GI50 was 2.86 µM in experiment [7] and 2.16 µM in experiment [8]. Besides, the TGI in experiment [1] turned out to be 7.71 µM; in experiment [2], 3.92 µM; in experiment [3] it was 4.53 µM; in experiment [4] it was 8.95 µM; in experiment [5] it was 11.2 µM; in experiment [6], 5.76 µM. Moreover, the results for the TGI in experiment [7] and in experiment [8] were 12.2 µM and 9.89 µM, respectively.

For the compound `Nc1ccc(-c2ccc(Nc3cc(S(=O)(=O)O)c(N)c4c3C(=O)c3ccccc3C4=O)cc2)c(S(=O)(=O)O)c1`, the TGI in experiment [1], in experiment [2], in experiment [3], in experiment [4], in experiment [5] and in experiment [6] was over 100 µM throughout. Moreover, the TGI in experiment [7] and in experiment [8] was over 100 µM each time.

On to `COc1ccc2c(O)c(/C=C3\N=Nc4ncccc43)oc2c1C[C@H]1CCNC[C@H]1F`, for which the GI50 in experiment [1] was 0.27 µM; in experiment [2], 0.24 µM; in experiment [3], 0.246 µM; in experiment [4] it was 0.436 µM; in experiment [5], 0.477 µM; in experiment [6] it was 0.286 µM. In addition, the figures for the GI50 in experiment [7] and in experiment [8] were 0.296 µM and 3.46 µM, respectively. In addition, the TGI in experiment [1] is 8.18 µM; in experiment [2] it was 0.806 µM; in experiment [3] it was 0.625 µM; in experiment [4] it was 27.4 µM; in experiment [5], 12.3 µM; in experiment [6] it was 1.06 µM. The figures for the TGI in experiment [7] and in experiment [8] were 10.4 µM and 21.1 µM, respectively.

For `CCC(C(=O)c1cccs1)C(O)(C(F)(F)F)C(F)(F)F` (configuration not stated), the TGI in experiment [1], in experiment [2], in experiment [3], in experiment [4], in experiment [5] and in experiment [6] was over 100 µM each time. The TGI in experiment [7] and in experiment [8] was over 100 µM throughout.

Take `Cc1cc(O)c(C2=NN(c3ccc(S(N)(=O)=O)cc3)C(c3ccccc3O)C2)cc1Cl` (configuration not stated): the GI50 in experiment [1] is 2.58 µM; in experiment [2], 1.86 µM; in experiment [3], 2.49 µM; in experiment [4], 2.17 µM; in experiment [5] it was 2.8 µM; in experiment [6], 2.24 µM. Moreover, the GI50 in experiment [7] was 2.64 µM; in experiment [8], 2.61 µM. Besides, the TGI was 8.55 µM in experiment [1]; 3.41 µM in experiment [2]; 6.14 µM in experiment [3]; 7.93 µM in experiment [4]; 8.54 µM in experiment [5]; 10.1 µM in experiment [6]. Also, the TGI in experiment [7] was 8.06 µM; in experiment [8], 11.3 µM.

`Fc1c[c-]c(-c2ccccn2)c(F)c1.[CH3-].[Pt+2].c1ccc([PH+](c2ccccc2)c2ccccn2)cc1`: the GI50 was 1.2 µM in experiment [1]; 1.77 µM in experiment [2]; 2.05 µM in experiment [3]; 1.78 µM in experiment [4]; 2.25 µM in experiment [5]; 0.412 µM in experiment [6]. Besides, the GI50 is 1.89 µM in experiment [7] and 1.13 µM in experiment [8]. The TGI in experiment [1] is 2.49 µM; in experiment [2], 5.72 µM; in experiment [3] it was 7.28 µM; in experiment [4], over 100 µM; in experiment [5] it was over 100 µM; in experiment [6], 4.44 µM. Besides, the TGI in experiment [7] worked out at 5.18 µM; in experiment [8], 5.78 µM.

On to `COc1cc(OC)cc(-c2ccc(-c3ccc(C(=N)N)s3)s2)c1`, for which the GI50 in experiment [1] was 1.45 µM; in experiment [2] it was 0.209 µM; in experiment [3] it was 1.23 µM and 0.174 µM; in experiment [4], 0.346 µM and 0.178 µM; in experiment [5], 1.66 µM; in experiment [6], 0.286 µM and 0.218 µM. Further, the GI50 in experiment [7] is 1.67 µM; in experiment [8], 1.36 µM. The TGI in experiment [1] was 3.25 µM; in experiment [2], 0.407 µM; in experiment [3], 2.74 µM and 0.374 µM; in experiment [4], 1.11 µM and 0.441 µM; in experiment [5], 4.16 µM; in experiment [6] it was 0.866 µM and 0.483 µM. In addition, the TGI in experiment [7] came to 3.42 µM; in experiment [8], 3.15 µM.
